We go through 26 compounds from publication PMC5881522, “Molecular Defects in Cardiac Myofilament Ca^2+-Regulation Due to Cardiomyopathy-Linked Mutations Can Be Reversed by Small Molecules Binding to Troponin” (Frontiers in Physiology, 2018).

Structures are written as SMILES. “Also recorded” adds a separate entry of the source. Some results are limits rather than exact numbers.

Experiment [1] concerns the target T1, thin filaments containing E180G tropomyosin (TPM1 E180G, HCM) (Homo sapiens, UniProt P19429+P45379+P63316).
T1 construct: isolate troponin from 100 mg of donor heart tissue; from tissue; host or cells: troponin: human donor heart; tropomyosin: baculovirus/Sf9 (gift); actin: rabbit fast-twitch skeletal muscle
Description: IVMA Ca2+-activation curves, TPM1 E180G. Type of experiment: biochemical. As to conditions: phosphorylated and unphosphorylated E180G tropomyosin thin filaments, 25 μM for Quercetin and ECG. The source says:
Recombinant human sequence tropomyosin was a gift from Kristen Nowak and Elyshia MacNamara, University, Western Australia. Wild-type α-tropomyosin (Tpm1.1) and mutant E180G tropomyosin were expressed in a baculovirus/Sf9 system (Akkari et al., [2002]; Marston et al., [2013]). Skeletal muscle F-actin and myosin were isolated from rabbit fast-twitch skeletal muscle as previously described (Messer et al., [2007]). TnC G159D mutant troponin was extracted from a mutant human heart sample (Dyer et al., [2009]), E99K mutant cardiac actin was extracted from the E99K transgenic mouse heart (Song et al., [2013]).
(§1) Thin filaments were reconstituted with 10 nM rabbit skeletal or mouse cardiac muscle α-actin (labeled with TRITC phalloidin), tropomyosin (40–60 nM), and troponin (60 nM) to study Ca^2+-regulation of filament motility by the quantitative in vitro motility assay (IVMA) (Fraser and Marston, [1995]; Messer et al., [2007]). Thin filament movement over a bed of immobilized rabbit fast skeletal muscle heavy meromyosin (100 μg/ml) was compared in paired motility cells, in which troponin varied by a single factor (mutation, phosphorylation state, or treatment with drug). The temperature was set to 29°C. Filament movement was recorded and analyzed as previously described (Marston et al., [1996]), yielding two parameters, the fraction of filaments moving and the speed of moving filaments. Only the fraction of filaments motile is used in this study.
The fraction motile was measured over a range of Ca^2+ concentrations to generate Ca^2+-activation curves. The data were fitted to the 4-variable Hill equation to yield a value for EC50 and nH. Most assays of the effect of compounds are single measurements. […]

Experiment [2] deals with T2, tropomyosin E180G mutant-containing thin filaments (Homo sapiens, UniProt P19429+P45379+P63316).
T2 construct: isolate troponin from 100 mg of donor heart tissue; from tissue; host or cells: troponin: human donor heart; tropomyosin: baculovirus/Sf9 (gift); actin: rabbit fast-twitch skeletal muscle
Description: Single [Ca2+] in vitro motility assay screen for re-coupling. Type of experiment: biochemical. As to conditions: for Coupling Difference (Initial Screen E180G): 100 μM compound, difference between motility (%) in phosphorylated and unphosphorylated thin filaments, TPM1 E180G, >10% = re-coupling; for Coupling Difference (Initial Screen E180G) / re-coupling activity (in words): 0.037 μM Ca2+; for re-coupling activity (in words): E180G thin filaments. The procedure: as §1
For drug screening, motility was measured with paired phosphorylated and unphosphorylated tropomyosin E180G mutant-containing thin filaments at a fixed 0.037 μM Ca^2+. Most assays were single measurements.
For the rapid screening of compounds, we devised a single Ca^2+ concentration assay. This is illustrated in Figures 2A,B for quercetin. The test system contains skeletal muscle actin, human sequence recombinant tropomyosin 1.1 containing the E180G HCM-associated mutation and human cardiac troponin from donor hearts in the phosphorylated and unphosphorylated form. At 0.037 μM Ca^2+ the filaments are about 40% motile irrespective of phosphorylation level whilst when quercetin is added the phosphorylated Ca^2+ activity curve shifts to the right and % motility at 0.037 μM Ca^2+ drops, whilst the unphosphorylated level is unchanged. We have set a difference between phosphorylated and unphosphorylated >10% as indicating re-coupling activity. This assay method can also be used to construct a dose-response curve as shown. We investigated compounds in 4 categories.
Figure 2 Single [Ca^2+] screen for re-coupling compounds. […] Solid lines, phosphorylated state; dotted lines, unphosphorylated state. Purple lines and points, E180G thin filaments; green lines and points, E180G thin filaments + Quercetin (B) Dose -response curve for quercetin recoupling activity measured at a constant concentration of 0.037 μM Ca^2+. INSET, kinetic analysis of dose response curve; difference between phosphorylated and unphosphorylated states is plotted against quercetin concentration. The Hill equation is fitted to the data, EC50 = 8 μM. (C,D) The effect of 100 μM drug treatment on the difference between % of motility of phosphorylated and unphosphorylated tropomyosin E180G mutant-containing thin filaments at 0.037 μM Ca^2+. (C) EGCG-related molecules (for structures 1–28 see Figure S1 and Table 1). (D) Silybin, related compounds and other HsP90 inhibitors and Ca^2+ desensitizers. The threshold for positive re-coupling was set at a 10% difference (dotted line).

In experiment [3] the test system is isolated cardiomyocytes from ACTC E99K HCM transgenic mice. The experiment in a line: Lusitropic effect of dobutamine in isolated cardiomyocytes. Type of experiment: cell-based. As to conditions: blunted in ACTC E99K mouse cardiomyocytes; preliminary experiments.
Description: The main effect of uncoupling of the modulation of Ca^2+ sensitivity by TnI phosphorylation is the loss of the lusitropic response to beta adrenergic stimulation, which is usually accompanied by blunting of the whole physiological adrenergic response.
In the next experiment the test system is Hsp90. More on the design: method as in Khandelwal et al., 2013. As to conditions: ref Khandelwal et al., 2013; read-out: EC50 Hsp90 inhibition assay; cited from earlier work.
The mark [4] stands for this setting: dose-response of % motility difference at 0.037 μM Ca2+, Hill fit.

On to `COc1cc([C@H]2Oc3cc(-c4oc5cc(O)cc(O)c5c(=O)c4O)ccc3O[C@@H]2CO)ccc1O` [Dehydrosilybin A, 2,3-dehydrosilybin A], for which the “effect on Ca2+-activation curves (desensitizer / re-coupler), in words” value (“effect … (desensitizer / re-coupler), in words” for short) in experiment [1] is listed as “ineﬀective”. Also, in experiment [2], the “Coupling Difference (Initial Screen E180G)” value (from here on “Coupling Difference”) turned out to be 3% and the “re-coupling activity (in words)” value is “poor recoupling molecule”.
As a reminder, the EC50 is the concentration that produces a half-maximal response. Take `COc1cc([C@@H]2Oc3cc(-c4oc5cc(O)cc(O)c5c(=O)c4O)ccc3O[C@H]2CO)ccc1O` [Dehydrosilybin B, 2,3-dehydrosilybin B]: the “effect … (desensitizer / re-coupler), in words” value is recorded as “pure recoupling” in experiment [1] and “recouples” in experiment [1] (listed as dehydrosilybin B). In addition, in experiment [2], the “Coupling Difference” value stood at 62%. Moreover, the “re-coupling activity (in words)” value in experiment [2] is listed as “restores coupling”. Moreover, in experiment [2] (setting [4]), a half-maximal response (EC50) required 47 µM.
With `O=C(O[C@@H]1Cc2c(O)cc(O)cc2O[C@@H]1c1ccc(O)c(O)c1)c1cc(O)c(O)c(O)c1` [Epicatechin Gallate], the “effect … (desensitizer / re-coupler), in words” value in experiment [1] (listed as ECG) is “pure desensitizer; also recorded: desensitizer but not a recoupler”. The “Coupling Difference” value in experiment [2] worked out at 8%.
For `Oc1cc(O)c2c(c1)O[C@H](c1ccc(O)c(O)c1)[C@H](O)C2` [Epicatechin], the “Coupling Difference” value in experiment [2] was determined as 69%.
With `Oc1cc(O)c2c(c1)O[C@H](c1cc(O)c(O)c(O)c1)[C@H](O)C2` [Epigallocatechin], in experiment [2], the “Coupling Difference” value came out at 62%.
Still for that read-out and setting: to `Oc1cc(O)c2c(c1)O[C@H](c1cc(O)c(O)c(O)c1)[C@@H](O)C2` [Gallocatechin] belongs 68%.
On to `COc1cc(C2Oc3ccc([C@H]4Oc5cc(O)cc(O)c5C(=O)[C@@H]4O)cc3OC2CO)ccc1O` (stereo partly drawn) [Isosilybin], for which the “Coupling Difference” value in experiment [2] amounted to 4%.
The same measure, in the same setting: to `CO[C@@H]1[C@@H](OC(N)=O)[C@@H](O)[C@H](Oc2ccc3c(O)c(NC(=O)c4ccc(O)c(CC=C(C)C)c4)c(=O)oc3c2C)OC1(C)C` [Novobiocin] belongs 46%.
`COC(=O)N1CCN(Cc2cccc(NC(=O)Nc3ccc(C)nc3)c2F)CC1` [Omecamtiv Mecarbil]: in experiment [2], the “Coupling Difference” value is reported as 0% and the “re-coupling activity (in words)” value was “do not re-couple”.
For `COc1cc(/C=C/c2ccc(O)cc2)cc(OC)c1` [Pterostilbene] the same measures were 50% and “effective re-couplers”.
On to `O=c1c(O)c(-c2ccc(O)c(O)c2)oc2cc(O)cc(O)c12` [Quercetin], for which, in experiment [1], the “effect … (desensitizer / re-coupler), in words” value is “typical pure recoupler; also recorded: pure recoupling”. The “Coupling Difference” value in experiment [2] came to 51%. In experiment [2] (setting [4]), this compound yielded an EC50 of 8 µM.
Take `Oc1ccc(/C=C/c2cc(O)cc(O)c2)cc1` [Resveratrol]: in experiment [2], the “Coupling Difference” value came out at 63% and the “re-coupling activity (in words)” value is “effective re-couplers”. Also, the “lusitropic effect of dobutamine, in words” value in experiment [3] is “restored”.
As to `COc1cc(C2Oc3cc([C@H]4Oc5cc(O)cc(O)c5C(=O)[C@@H]4O)ccc3OC2CO)ccc1O` (stereo partly drawn) [Silybin], in experiment [2], the “Coupling Difference” value is recorded as 12.0%. In experiment [2] (setting [4]), this compound had an EC50 of 47 µM.
In the case of `COc1cc([C@@H]2Oc3c(O)cc([C@H]4Oc5cc(O)cc(O)c5C(=O)[C@@H]4O)cc3[C@H]2CO)ccc1O` [Silychristin], the “Coupling Difference” value in experiment [2] is recorded as 35%.
Same read-out and setting: to `COc1cc([C@@H]2[C@H]3CO[C@@]4(O)C(=O)[C@@H]2C=C([C@H]2Oc5cc(O)cc(O)c5C(=O)[C@@H]2O)[C@@H]34)ccc1O` [Silydianin] belongs 20%; to `COc1ccc(-c2coc3cc(O[C@@H]4O[C@H](CO)[C@@H](O)[C@H](O)[C@H]4O)cc(O)c3c2=O)cc1` [Sissotrin], 30%.
Still for that read-out and setting: the value for `O=C1c2c(O)cc(O)cc2OC(c2ccc(O)c(O)c2)C1O` (stereo not drawn) [Taxifolin] was 60%.
As for `NCCCCCCNS(=O)(=O)c1cccc2c(Cl)cccc12` [W-7], in experiment [2], the “Coupling Difference” value is given as 50% and the “re-coupling activity (in words)” value is “effective re-couplers”.
Regarding `COc1cccc(-c2cc(C(=O)OC3COc4cc(O)cc(O)c4C3)ccc2OC)c1` (stereo not drawn) [compound 2], the EC50 with Hsp90 is 22 µM; in experiment [2] (setting [4]) it was 30 µM. Also, the “Coupling Difference” value in experiment [2] stood at 27.0%. For the same compound, in experiment [2], the “re-coupling activity (in words)” value is “effective re-couplers”.
For the compound `COc1cccc(C(=O)OC2COc3cccc(O)c3C2)c1` (stereo not drawn) [compound 4], the EC50 with Hsp90 is > 100 µM; in experiment [2] (setting [4]) it was 34 µM. Further, the “Coupling Difference” value in experiment [2] is 27.0%.
In the case of `COc1ccc(C(=O)OC2COc3cc(OC)cc(OC)c3C2)cc1` (stereo not drawn) [compound 7], in the experiment on Hsp90, the EC50 was 32 µM. In addition, in experiment [2], the “Coupling Difference” value is −11.0% and the “re-coupling activity (in words)” value was “reverse effect”. The compound further registered an EC50 in experiment [2] (setting [4]) of 67 µM.
Regarding `COc1cc(OC)c2c(c1)OCC(OC(=O)c1ccc(OC(C)=O)c(CC=C(C)C)c1)C2` (stereo not drawn) [compound 8], the EC50 with Hsp90 is 38 µM. In experiment [2], the “Coupling Difference” value is given as “No Effect” and the “re-coupling activity (in words)” value is “inactive”.
In the case of `COc1ccc(C(=O)OC2COc3cccc(O)c3C2)cc1` (stereo not drawn) [compound 9], the EC50 in the experiment with Hsp90 is > 100 µM; in experiment [2] (setting [4]), 35 µM. In experiment [2], the “Coupling Difference” value was determined as 20.0%.
Regarding `O=C(O[C@H]1COc2cc(O)cc(O)c2C1)c1cccc(O)c1` [compound 12], the EC50 in the experiment on Hsp90 was 63 µM. Further, the “Coupling Difference” value in experiment [2] was −1.0%. For the same compound, the “nH (Table 6-1, E180G + Drug)” value in experiment [2] (Hill coefficient of dose-response of % motility difference, 0.037 µM Ca2+) is recorded as “No%Eﬀect”. Moreover, in experiment [2] (difference between phosphorylated and dephosphorylated TPM1 E180G thin filaments, 0.037 µM Ca2+, Hill fit), the “EC50 (Table 6-1, E180G + Drug)” value is listed as “No%Eﬀect”. Besides, the “E180G EC50 % Motility Difference” value in experiment [2] (setting [4]) is “No Effect”. The “Magnitute (% difference)” value in experiment [2] (fitted magnitude of dose-response of % motility difference, 0.037 µM Ca2+) is given as “No%Eﬀect”.
As to `CCOc1cccc(C(=O)OC2COc3cc(OC)cc(OC)c3C2)c1` (stereo not drawn) [compound 16], the EC50 was 8 µM with Hsp90 and 31 µM in experiment [2] (setting [4]). Also, the “Coupling Difference” value in experiment [2] amounted to 6.0%. The “re-coupling activity (in words)” value in experiment [2] is “inactive”.
As for `COc1cc(OC)cc(C(=O)OC2COc3cc(OC)cc(OC)c3C2)c1` (stereo not drawn) [compound 19], the EC50 with Hsp90 is 21 µM. In addition, in experiment [2], the “Coupling Difference” value came to 24.0% and the “re-coupling activity (in words)” value was “re-coupler”.
